Key:
[1] = target: COX-1 (Homo sapiens, UniProt P23219); settings: background statement; cited from earlier work
Sequence of COX-1 (P23219 24-599): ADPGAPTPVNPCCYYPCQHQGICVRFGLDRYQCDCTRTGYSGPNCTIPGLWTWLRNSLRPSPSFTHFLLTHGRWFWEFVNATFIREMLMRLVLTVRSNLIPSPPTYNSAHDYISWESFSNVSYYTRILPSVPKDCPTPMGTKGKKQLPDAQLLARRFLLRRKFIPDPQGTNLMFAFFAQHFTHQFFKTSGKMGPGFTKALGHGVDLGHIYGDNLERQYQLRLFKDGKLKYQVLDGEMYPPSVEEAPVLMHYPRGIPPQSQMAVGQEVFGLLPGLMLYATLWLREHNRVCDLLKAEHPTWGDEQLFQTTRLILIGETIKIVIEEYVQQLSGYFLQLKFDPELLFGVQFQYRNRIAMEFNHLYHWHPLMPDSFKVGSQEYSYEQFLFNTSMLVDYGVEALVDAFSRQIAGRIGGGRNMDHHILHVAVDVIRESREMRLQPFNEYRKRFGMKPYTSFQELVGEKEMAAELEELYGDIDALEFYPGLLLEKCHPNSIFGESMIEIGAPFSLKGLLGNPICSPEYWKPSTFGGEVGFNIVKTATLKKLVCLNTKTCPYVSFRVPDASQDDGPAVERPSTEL

melting point	Compound	in vitro inhibitory activity against COX-1 [1]
88.3 to 96.7 °C	CCC(=O)NS(=O)(=O)c1ccc(-n2nc(C(F)(F)F)cc2-c2ccc(C)cc2)cc1 [compound (V), N-[[4-[5-(4-methylphenyl)-3-(trifluoromethyl)-1H-pyrazol-1-yl]phenyl]-sulfonyl]propanamide]	
	CCC(=O)NS(=O)(=O)c1ccc(-c2c(-c3ccccc3)noc2C)cc1 [Parecoxib]	weak
	Cc1onc(-c2ccccc2)c1-c1ccc(S(N)(=O)=O)cc1 [valdecoxib]	weak
> 300 °C	CCC(=O)[N-]S(=O)(=O)c1ccc(-n2nc(C(F)(F)F)cc2-c2ccc(C)cc2)cc1.[Na+] [compound Z, 4-[5-(4-methylphenyl)-3-(trifluoromethyl)-1H-pyrazol-1-yl]-N-propionylbenzenesulfonamide, sodium salt]	

— US20040092566A1, “Celecoxib prodrug” (priority 2002, published 2004)
